The values below come from patent US10683297B2 (Sunshine Lake Pharma Co., Ltd., priority 2017, dated 2020).

Data set [1] can be described thus: Compound stability in rat liver microsomes. Type of data set: in vitro ADME. The conditions noted are these: for CLint scaled at 5 μM: liver microsomes, pH 7.4, in vivo CLint extrapolated from rat liver microsome incubation; for half-life at 5 μM: read-out: Rat T1/2. In short, it runs like this:
(§1)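 Compounds (5 μM) incubated at 37 °C with human or rat liver microsomes (0.5 mg protein/mL) and 1.0 mM NADPH in 100 mM phosphate buffer pH 7.4, 0.05% DMSO, in duplicate. Sampled 0–60 min, quantified by LC/MS/MS as % of time zero; CLint extrapolated.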

Another data set deals with T1, JAK1 (h) (Homo sapiens, UniProt P23458).
T1 construct: purchased Millipore UK Ltd (assays performed there as a service)
Put plainly: JAK1 (h) kinase assay. Type of data set: biochemical. The conditions noted are these: [γ-33P-ATP] 10 μM or KM values; 40 minutes at room temperature. In short, it runs like this:
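Radiometric filter-binding assay: human JAK1 incubated 40 min at room temperature in 20 mM Tris/HCl pH 7.5, 0.2 mM EDTA, 500 μM peptide substrate, 10 mM Mg acetate, with [γ-33P]ATP at 10 μM or KM. Reaction stopped with phosphoric acid; P30 filtermat scintillation counting.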

The nature of data set [2]: Compound stability in human liver microsomes. Type of data set: in vitro ADME. The conditions noted are these: for half-life at 5 μM: human liver microsomes 0.5 mg protein/mL, compound 5 μM, NADPH 1.0 mM, pH 7.4, 37° C., read-out: Human T1/2; for CLint scaled at 5 μM: liver microsomes, pH 7.4, in vivo CLint extrapolated from human liver microsome incubation. In short, it runs like this: as §1

Where [3] appears, read: rat liver microsomes 0.5 mg protein/mL, compound 5 μM, NADPH 1.0 mM, pH 7.4, 37° C.

T1 sequence (P23458 whole entry): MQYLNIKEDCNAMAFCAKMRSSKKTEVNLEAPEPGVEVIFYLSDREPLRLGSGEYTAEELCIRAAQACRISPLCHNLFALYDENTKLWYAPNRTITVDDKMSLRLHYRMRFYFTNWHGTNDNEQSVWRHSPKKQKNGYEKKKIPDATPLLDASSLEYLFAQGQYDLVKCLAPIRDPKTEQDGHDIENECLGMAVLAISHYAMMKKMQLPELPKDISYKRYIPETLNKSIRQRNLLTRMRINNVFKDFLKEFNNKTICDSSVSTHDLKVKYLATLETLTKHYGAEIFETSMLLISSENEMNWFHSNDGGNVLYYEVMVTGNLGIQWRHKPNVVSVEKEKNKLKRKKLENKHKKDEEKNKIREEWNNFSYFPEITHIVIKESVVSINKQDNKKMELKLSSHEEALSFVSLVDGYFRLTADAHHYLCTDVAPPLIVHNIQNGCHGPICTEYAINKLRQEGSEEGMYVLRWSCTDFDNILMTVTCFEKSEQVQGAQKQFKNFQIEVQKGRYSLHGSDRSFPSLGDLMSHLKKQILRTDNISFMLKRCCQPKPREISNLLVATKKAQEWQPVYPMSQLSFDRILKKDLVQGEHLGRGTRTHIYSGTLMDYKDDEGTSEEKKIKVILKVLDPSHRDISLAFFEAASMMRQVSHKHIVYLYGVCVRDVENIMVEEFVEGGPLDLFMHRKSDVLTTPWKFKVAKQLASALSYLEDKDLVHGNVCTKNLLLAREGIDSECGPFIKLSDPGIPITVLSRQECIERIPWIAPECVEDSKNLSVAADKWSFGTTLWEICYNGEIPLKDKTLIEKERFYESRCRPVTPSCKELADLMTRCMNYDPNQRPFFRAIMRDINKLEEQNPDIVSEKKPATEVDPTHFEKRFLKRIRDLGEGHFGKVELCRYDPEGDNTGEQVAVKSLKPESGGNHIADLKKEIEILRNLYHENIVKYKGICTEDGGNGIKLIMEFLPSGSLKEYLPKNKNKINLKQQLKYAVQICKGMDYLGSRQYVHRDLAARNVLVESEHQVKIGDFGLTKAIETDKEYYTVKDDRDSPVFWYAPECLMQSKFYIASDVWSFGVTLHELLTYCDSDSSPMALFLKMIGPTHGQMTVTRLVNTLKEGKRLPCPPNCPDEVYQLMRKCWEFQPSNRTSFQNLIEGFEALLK

In general, CLint scaled refers to the capacity of the preparation to metabolise the compound, expressed as a volume cleared per time. In general, IC50 refers to the midpoint of a concentration-inhibition curve. Lower therefore signals greater potency. As for `CCC1CN(c2ccc(C#N)cn2)CCC1Nc1nc(Nc2ccn3c(C)cnc3c2)ncc1Cl` (stereo not shown) [Example 2, 6-(4-((5-chloro-2-((3-methylimidazo[1,2-a]pyridin-7-yl)amino)pyrimidin-4-yl)amino)-3-ethylpiperidin-1-yl)nicotinonitrile], the CLint scaled at 5 μM in data set [1] is 52.4 mL/min/kg; in data set [2] it was 48.1 mL/min/kg. In addition, the values for the half-life at 5 μM in data set [1] (setting [3]) and in data set [2] were 47.4 min and 36.2 min, respectively. The IC50 against JAK1 (h) came to 1 nM.
Turning to `CCC1CN(c2ccc(C#N)nn2)CCC1Nc1nc(Nc2ccn3c(C)cnc3c2)ncc1Cl` (stereo not shown) [Example 3, 6-(4-((5-chloro-2-((3-methylimidazo[1,2-a]pyridin-7-yl)amino)pyrimidin-4-yl)amino)-3-ethylpiperidin-1-yl)pyridazine-3-carbonitrile], in data set [1] (setting [3]), the “Rat T1/2” value is given as “∞”. For the same compound, the concentration for half-maximal inhibition (IC50) against JAK1 (h) was 0.6 nM. Further, in data set [2], the half-life at 5 μM was 56.3 min and the intrinsic clearance (CLint scaled) at 5 μM was 30.9 mL/min/kg.
As to `Cc1cnc2cc(Nc3ncc(Cl)c(NC4CCN(c5ccc(C#N)nn5)CC4)n3)ccn12` [Example 12, 6-(4-((5-chloro-2-((3-methylimidazo[1,2-a]pyridin-7-yl)amino)pyrimidin-4-yl)amino)piperidin-1-yl)pyridazine-3-carbonitrile], the figures for the intrinsic clearance (CLint scaled) at 5 μM in data set [1] and in data set [2] were 13.4 mL/min/kg and 14.9 mL/min/kg, respectively. In addition, the figures for the half-life at 5 μM in data set [1] (setting [3]) and in data set [2] were 186 min and 117 min, respectively. The IC50 on JAK1 (h) was determined as 0.4 nM.
With `N#Cc1ccc(N2CCC(Nc3nc(Nc4ccn5c(C(F)F)nnc5c4)ncc3Cl)CC2)nc1` [Example 30, 6-(4-((5-chloro-2-((3-(difluoromethyl)-[1,2,4]triazolo[4,3-a]pyridin-7-yl)amino)pyrimidin-4-yl)amino)piperidin-1-yl)nicotinonitrile], the CLint scaled at 5 μM was 30.8 mL/min/kg in data set [1] and 13.8 mL/min/kg in data set [2]. The half-life at 5 μM was found to be 80.5 min in data set [1] (setting [3]) and 126 min in data set [2]. The compound further showed a concentration for half-maximal inhibition (IC50) on JAK1 (h) of 0.9 nM.
`Cc1nc2cc(Nc3ncc(Cl)c(NC4CCN(c5ccc(C#N)cn5)CC4)n3)ccn2n1` [Example 32, 6-(4-((5-chloro-2-((2-methyl-[1,2,4]triazolo[1,5-a]pyridin-7-yl)amino)pyrimidin-4-yl)amino)piperidin-1-yl)nicotinonitrile] showed a concentration for half-maximal inhibition (IC50) at JAK1 (h) of 0.5 nM. This counts as sub-nanomolar.
As for `CC(C)(O)c1nc2cc(Nc3ncc(Cl)c(NC4CCN(c5ccc(C#N)cn5)CC4)n3)ccn2n1` [Example 39, 6-(4-((5-chloro-2-((2-(2-hydroxypropan-2-yl)-[1,2,4]triazolo[1,5-a]pyridin-7-yl)amino)pyrimidin-4-yl)amino)piperidin-1-yl)nicotinonitrile], the figures for the intrinsic metabolic clearance (CLint scaled) at 5 μM in data set [1] and in data set [2] were 10.1 mL/min/kg and 14.4 mL/min/kg, respectively. The half-life at 5 μM in data set [1] (setting [3]) amounted to 246 min; in data set [2], 121 min. The half-maximal inhibitory concentration (IC50) against JAK1 (h) is 0.6 nM.
Consider `CC(C)(O)c1nnc2cc(Nc3ncc(Cl)c(NC4CCN(c5ccc(C#N)cn5)CC4)n3)ccn12` [Example 40], for which the CLint scaled at 5 μM in data set [1] was 44.7 mL/min/kg; in data set [2], 4.8 mL/min/kg. Also, the half-life at 5 μM stood at 55.6 min in data set [1] (setting [3]) and 361 min in data set [2]. The same compound had an IC50 at JAK1 (h) of less than 0.3 nM.
On to `Cn1cnc2cc(Nc3ncc(Cl)c(NC4CCN(c5ccc(C#N)cn5)CC4)n3)ccc21` [Example 46, 6-(4-((5-chloro-2-((1-methyl-1H-benzo[d]imidazol-5-yl)amino)pyrimidin-4-yl)amino)piperidin-1-yl)nicotinonitrile], for which the intrinsic metabolic clearance (CLint scaled) at 5 μM in data set [1] was 32.5 mL/min/kg; in data set [2] it was 27.5 mL/min/kg. Further, the half-life at 5 μM in data set [1] (setting [3]) worked out at 76.3 min; in data set [2], 63.1 min. The compound further yielded a concentration for half-maximal inhibition (IC50) at JAK1 (h) of less than 0.3 nM.
In the same order, the values of `Cn1nnc2cc(Nc3ncc(Cl)c(NC4CCN(c5ccc(C#N)nn5)CC4)n3)ccc21` [Example 47, 6-(4-((5-chloro-2-((l-methyl-1H-benzo[d][1,2,3]triazol-5-yl)amino)pyrimidin-4-yl)amino)piperidin-1-yl)pyridazine-3-carbonitrile] are 89.4 mL/min/kg, 16.1 mL/min/kg, 27.8 min, 108 min and less than 0.3 nM.
For the compound `Cc1nc2cc(Nc3ncc(Cl)c(NC4CCN(c5ccc(C#N)cn5)CC4)n3)ccc2n1C` [Example 48, 6-(4-((5-chloro-2-((1,2-dimethyl-1H-benzo[d]imidazol-5-yl)amino)pyrimidin-4-yl)amino)piperidin-1-yl)nicotinonitrile], the CLint scaled at 5 μM in data set [1] was 44.6 mL/min/kg; in data set [2], 46.9 mL/min/kg. The half-life at 5 μM in data set [1] (setting [3]) worked out at 55.7 min; in data set [2], 37 min. This compound showed an IC50 against JAK1 (h) of less than 0.3 nM.
On the same counts, the results for `CC(C)(O)c1nc2cc(Nc3ncc(Cl)c(NC4CCN(c5ccc(C#N)nn5)CC4)n3)ccn2n1` [Example 55, 6-(4-((5-chloro-2-((2-(2-hydroxypropan-2-yl)-[1,2,4]triazolo[1,5-a]pyridin-7-yl)amino)pyrimidin-4-yl)amino)piperidin-1-yl)pyridazine-3-carbonitrile] are 7.3 mL/min/kg, 1.3 mL/min/kg, 340 min, 1370 min and 0.9 nM.
In the same order, the values of `CC(O)Cc1nc2cc(Nc3ncc(Cl)c(NC4CCN(c5ccc(C#N)nn5)CC4)n3)ccn2n1` (stereo not shown) [Example 56, 6-(4-((5-chloro-2-((2-(2-hydroxypropyl)-[1,2,4]triazolo[1,5-a]pyridin-7-yl)amino)pyrimidin-4-yl)amino)piperidin-1-yl)pyridazine-3-carbonitrile] are 50.9 mL/min/kg, 36.5 mL/min/kg, 48.8 min, 47.7 min and 0.5 nM.
On the same counts, the results for `N#Cc1ccc(N2CCC(Nc3nc(Nc4ccc5c(c4)nnn5CC4CC4)ncc3Cl)CC2)nc1` [Example 60, 6-(4-((5-chloro-2-((1-(cyclopropylmethyl)-1H-benzo[d][1,2,3]triazol-5-yl)amino)pyrimidin-4-yl)amino)piperidin-1-yl)nicotinonitrile] are 732 mL/min/kg, 112 mL/min/kg, 3.4 min, 15.6 min and 0.4 nM.
`CC(O)Cn1cnc2cc(Nc3ncc(Cl)c(NC4CCN(c5ccc(C#N)cn5)CC4)n3)ccc21` (stereo not shown) [Example 61, 6-(4-((5-chloro-2-((1-(2-hydroxypropyl)-1H-benzo[d]imidazol-5-yl)amino)pyrimidin-4-yl)amino)piperidin-1-yl)nicotinonitrile]: the CLint scaled at 5 μM in data set [1] is 86.2 mL/min/kg; in data set [2], 13.6 mL/min/kg. The half-life at 5 μM came to 28.8 min in data set [1] (setting [3]) and 128 min in data set [2]. In addition, the half-maximal inhibitory concentration (IC50) against JAK1 (h) was less than 0.3 nM.
On the same counts, the results for `CC(C)(O)Cc1nc2ccc(Nc3ncc(Cl)c(NC4CCN(c5ccc(C#N)cn5)CC4)n3)cn2n1` [Example 67, 6-(4-((5-chloro-2-((2-(2-hydroxy-2-methylpropyl)-[1,2,4]triazolo[1,5-a]pyridin-6-yl)amino)pyrimidin-4-yl)amino)piperidin-1-yl)nicotinonitrile] are 80.6 mL/min/kg, 13.7 mL/min/kg, 30.8 min, 127 min and 0.6 nM.
On to `CC(C)(O)c1cnc2cc(Nc3ncc(Cl)c(NC4CCN(c5ccc(C#N)cn5)CC4)n3)ccn12` [Example 68, 6-(4-((5-chloro-2-((3-(2-hydroxypropan-2-yl)imidazo[1,2-a]pyridin-7-yl)amino)pyrimidin-4-yl)amino)piperidin-1-yl)nicotinonitrile], for which the CLint scaled at 5 μM is 130 mL/min/kg in data set [1] and 164 mL/min/kg in data set [2]. For the same compound, the half-life at 5 μM in data set [1] (setting [3]) turned out to be 19 min; in data set [2], 10.6 min. The 50% inhibitory concentration (IC50) against JAK1 (h) was found to be 0.3 nM.
In the same order, the values of `CC(C)(O)Cn1nnc2cc(Nc3ncc(Cl)c(NC4CCN(c5ccc(C#N)cn5)CC4)n3)ccc21` [Example 69, 6-(4-((5-chloro-2-((1-(2-hydroxy-2-methylpropyl)-1H-benzo[d][1,2,3]triazol-5-yl)amino)pyrimidin-4-yl)amino)piperidin-1-yl)nicotinonitrile] are 14.6 mL/min/kg, 3.5 mL/min/kg, 170 min, 496 min and 0.5 nM.
In the same order, the values of `CC(C)(O)c1cn2ccc(Nc3ncc(Cl)c(NC4CCN(c5ccc(C#N)cn5)CC4)n3)cc2n1` [Example 70, 6-(4-((5-chloro-2-((2-(2-hydroxypropan-2-yl)imidazo[1,2-a]pyridin-7-yl)amino)pyrimidin-4-yl)amino)piperidin-1-yl)nicotinonitrile] are 528 mL/min/kg, 168 mL/min/kg, 4.71 min, 10.3 min and 0.5 nM.
